In paper PMC7913927, “Leishmanicidal Activity of Betulin Derivatives in Leishmania amazonensis; Effect on Plasma and Mitochondrial Membrane Potential, and Macrophage Nitric Oxide and Superoxide Production” (Microorganisms, 2021):
Several values for one entry are separate records, joined by “and”; a condition that tells them apart may be missing. Equal entries are not always repeated. Where two headings read alike, the source gives them in different places.

Legend:
J774.1 macrophages = assay: Cytotoxicity (Alamar Blue) in macrophages; type: cell-based, murine; conditions: 72 h
Procedure: In flat-bottom 96-well culture plates, J774.1 macrophages were seeded at a cell density of 5 × 10^4 mL^−1 (10,000 macrophages/well) in 200 µL of RPMIc. After 24 h at 37 °C, 5% CO2, medium was replaced by 180 µL of RPMIc, without phenol red, and increasing concentrations of test compounds in 2-µL volumes. […] At least two independent experiments were performed in duplicate. Based on the inhibition of cell growth caused by the tested compounds, the percentage of growth inhibition compared to untreated cells was calculated. […] Selectivity indices (SI) were calculated, dividing the macrophage CC50 by the parasites GI50 (SI = CC50/GI50).

[1] = test system: L. (L.) braziliensis MHOM/BR/LTB300; design: method as in PMID 25240731; conditions: cited from earlier work
[2] = test system: L. (V.) braziliensis promastigotes, reference strain MHOM/BR/LTB300; conditions: reference strain MHOM/BR/LTB300; cited from earlier work
[3] = test system: LTB0016 intracellular amastigotes in J774.1 macrophages; assay: Macrophage-amastigote model, reference strain; type: cell-based, Leishmania amazonensis; conditions: for Growth (%) Exp1 Infección / Growth (%) Exp1 A/MØ / Growth (%) Exp1 A/100MØ / Growth (%) Exp1 %Control / Growth (%) Exp2 Infección / Growth (%) Exp2 A/MØ / Growth (%) Exp2 A/100MØ / Growth (%) Exp2 %Control / Growth (%) Exp3 Infección / Growth (%) Exp3 A/MØ / Growth (%) Exp3 A/100MØ / Growth (%) Exp3 %Control / Average A/100MØ: 72 h; for Growth (%) Exp1 Infección / Growth (%) Exp2 Infección / Growth (%) Exp3 Infección: % infected macrophages; for Growth (%) Exp1 A/MØ / Growth (%) Exp2 A/MØ / Growth (%) Exp3 A/MØ: amastigotes per infected macrophage; for Growth (%) Exp1 A/100MØ / Growth (%) Exp2 A/100MØ / Growth (%) Exp3 A/100MØ: infection index; for Growth (%) Exp1 %Control / Growth (%) Exp2 %Control / Growth (%) Exp3 %Control: infection index vs DMSO; for Average A/100MØ: average of Exp1-3
Procedure: We used a previously described methodology, with some modifications. Macrophage monolayers, grown in RMPIc medium, for 3 days, were detached from the bottom of the culture chamber, by physical treatment (low temperature and light strokes). Obtained macrophages were seeded in flat-bottom 96-well culture plates, at a density of 2 × 10^5 cells mL^−1 (40,000 macrophages/well), in a final volume of 200 µL. Plates were incubated for 2 h, and the supernatant was discarded to remove non-adhered macrophages. Medium was replaced with stationary-phase promastigotes suspended in 200 µL of RPMIc (2 × 10^6 parasites mL^−1, 400,000 parasites/well), at a macrophage: parasite ratio 1:10 [40]. The plates were incubated for 4 h. Afterwards the medium was replaced with fresh RPMIc and increasing concentrations of compounds or drugs tested were applied, in volumes of 2 µL, according to the different treatment groups. Plates were kept for 72 h, at 37 °C and 5% CO2. The medium was discarded and the wells were washed twice with PBS. Next, a Giemsa staining was performed in situ. It consisted of adding 200 µL of methanol/well, incubating for 5 min, discarding the fixative, and letting it dry at room temperature. Later, the Giemsa solution (10% in PBS w/v, 200 µL/well) was added, incubated for 10 min, and washed with PBS, allowing it to dry. Finally, the bottom of the plates was detached by percussion and the circular bottoms (wells) were fixed to slides with Permount synthetic resin, for later evaluation (Alcazar W., manuscript in preparation). Cell counting was performed with a 100× immersion objective. A minimum of 200 random macrophages were examined. The percentage of infected macrophages (% infection) and the average number of amastigotes present in infected macrophages (amastigotes) were determined. […] The infection rate represents the number of intracellular amastigotes per 100 macrophages evaluated. Additionally, the GI50 for the decrease in the infection rate was calculated. At least three independent experiments were performed. The effect of amphotericin-B (AmB) [Sigma-Aldrich, (St. Louis, MO, USA)] was included as positive control of the assay.

C=C(C)C1CCC2(C=NO)CCC3(C)C(CCC4C5(C)CCC(=NO)C(C)(C)C5CCC43C)C12 (centres unmarked) [Compound 18]
CC50 (J774.1 macrophages): 48.1 µM
inhibition of parasite migration [1]: inhibited parasite migration at nano and picomolar concentrations
active concentration in L. (L.) braziliensis [2]: less than 10 µM
SI (CC50/GI50) LTB0016 ([3]; J774.1 CC50 / intracellular amastigote GI50, Table 2): 240.45
Growth (%) Exp1 Infección ([3]; LTB0016, 0.10 µM): 52.43%
Growth (%) Exp1 A/MØ ([3]; LTB0016, 0.10 µM): 3.54
Growth (%) Exp1 A/100MØ ([3]; LTB0016, 0.10 µM): 185.69
Growth (%) Exp1 %Control ([3]; LTB0016, 0.10 µM): 70.78%
Growth (%) Exp2 Infección ([3]; LTB0016, 0.10 µM): 57.50%
Growth (%) Exp2 A/MØ ([3]; LTB0016, 0.10 µM): 3.36
Growth (%) Exp2 A/100MØ ([3]; LTB0016, 0.10 µM): 193.20
Growth (%) Exp2 %Control ([3]; LTB0016, 0.10 µM): 90.86%
Growth (%) Exp3 Infección ([3]; LTB0016, 0.10 µM): 41.73%
Growth (%) Exp3 A/MØ ([3]; LTB0016, 0.10 µM): 2.66
Growth (%) Exp3 A/100MØ ([3]; LTB0016, 0.10 µM): 111.00
Growth (%) Exp3 %Control ([3]; LTB0016, 0.10 µM): 62.52%
Average A/100MØ ([3]; LTB0016, 0.10 µM): 163.30
Growth (%) Exp1 Infección ([3]; LTB0016, 0.50 µM): 36.24%
Growth (%) Exp1 A/MØ ([3]; LTB0016, 0.50 µM): 3.35
Growth (%) Exp1 A/100MØ ([3]; LTB0016, 0.50 µM): 121.51
Growth (%) Exp1 %Control ([3]; LTB0016, 0.50 µM): 46.32%
Growth (%) Exp2 Infección ([3]; LTB0016, 0.50 µM): 32.38%
Growth (%) Exp2 A/MØ ([3]; LTB0016, 0.50 µM): 2.08
Growth (%) Exp2 A/100MØ ([3]; LTB0016, 0.50 µM): 67.35
Growth (%) Exp2 %Control ([3]; LTB0016, 0.50 µM): 31.68%
Growth (%) Exp3 Infección ([3]; LTB0016, 0.50 µM): 25.00%
Growth (%) Exp3 A/MØ ([3]; LTB0016, 0.50 µM): 2.29
Growth (%) Exp3 A/100MØ ([3]; LTB0016, 0.50 µM): 57.25
Growth (%) Exp3 %Control ([3]; LTB0016, 0.50 µM): 32.25%
Average A/100MØ ([3]; LTB0016, 0.50 µM): 82.04
Growth (%) Exp1 Infección ([3]; LTB0016, 1.00 µM): 10.68%
Growth (%) Exp1 A/MØ ([3]; LTB0016, 1.00 µM): 3.15
Growth (%) Exp1 A/100MØ ([3]; LTB0016, 1.00 µM): 33.68
Growth (%) Exp1 %Control ([3]; LTB0016, 1.00 µM): 12.84%
Growth (%) Exp2 Infección ([3]; LTB0016, 1.00 µM): 24.45%
Growth (%) Exp2 A/MØ ([3]; LTB0016, 1.00 µM): 1.29
Growth (%) Exp2 A/100MØ ([3]; LTB0016, 1.00 µM): 31.54
Growth (%) Exp2 %Control ([3]; LTB0016, 1.00 µM): 14.83%
Growth (%) Exp3 Infección ([3]; LTB0016, 1.00 µM): 17.20%
Growth (%) Exp3 A/MØ ([3]; LTB0016, 1.00 µM): 3.00
Growth (%) Exp3 A/100MØ ([3]; LTB0016, 1.00 µM): 51.60
Growth (%) Exp3 %Control ([3]; LTB0016, 1.00 µM): 29.06%
Average A/100MØ ([3]; LTB0016, 1.00 µM): 38.94
Growth (%) Exp1 Infección ([3]; LTB0016, 5.00 µM): 9.37%
Growth (%) Exp1 A/MØ ([3]; LTB0016, 5.00 µM): 1.83
Growth (%) Exp1 A/100MØ ([3]; LTB0016, 5.00 µM): 17.18
Growth (%) Exp1 %Control ([3]; LTB0016, 5.00 µM): 6.55%
Growth (%) Exp2 Infección ([3]; LTB0016, 5.00 µM): 17.07%
Growth (%) Exp2 A/MØ ([3]; LTB0016, 5.00 µM): 1.50
Growth (%) Exp2 A/100MØ ([3]; LTB0016, 5.00 µM): 25.61
Growth (%) Exp2 %Control ([3]; LTB0016, 5.00 µM): 12.04%
Growth (%) Exp3 Infección ([3]; LTB0016, 5.00 µM): 10.71%
Growth (%) Exp3 A/MØ ([3]; LTB0016, 5.00 µM): 2.75
Growth (%) Exp3 A/100MØ ([3]; LTB0016, 5.00 µM): 29.45
Growth (%) Exp3 %Control ([3]; LTB0016, 5.00 µM): 16.59%
Average A/100MØ ([3]; LTB0016, 5.00 µM): 24.08
Growth (%) Exp1 Infección ([3]; LTB0016, 10.00 µM): 5.40%
Growth (%) Exp1 A/MØ ([3]; LTB0016, 10.00 µM): 1.67
Growth (%) Exp1 A/100MØ ([3]; LTB0016, 10.00 µM): 9.00
Growth (%) Exp1 %Control ([3]; LTB0016, 10.00 µM): 3.43%
Growth (%) Exp2 Infección ([3]; LTB0016, 10.00 µM): 11.23%
Growth (%) Exp2 A/MØ ([3]; LTB0016, 10.00 µM): 1.20
Growth (%) Exp2 A/100MØ ([3]; LTB0016, 10.00 µM): 13.48
Growth (%) Exp2 %Control ([3]; LTB0016, 10.00 µM): 6.34%
Growth (%) Exp3 Infección ([3]; LTB0016, 10.00 µM): 3.48%
Growth (%) Exp3 A/MØ ([3]; LTB0016, 10.00 µM): 3.00
Growth (%) Exp3 A/100MØ ([3]; LTB0016, 10.00 µM): 10.44
Growth (%) Exp3 %Control ([3]; LTB0016, 10.00 µM): 5.88%
Average A/100MØ ([3]; LTB0016, 10.00 µM): 10.97
GI50 ([3]; LTB0016 intracellular amastigotes, GraphPad regression, read-out: GI50 (µM) Experiment 1 Regresion): 0.29 µM
GI50 ([3]; LTB0016 intracellular amastigotes, GraphPad regression, read-out: GI50 (µM) Experiment 2 Regresion): 0.34 µM
GI50 ([3]; LTB0016 intracellular amastigotes, GraphPad regression, read-out: GI50 (µM) Experiment 3 Regresion): 0.2 µM
GI50 ([3]; intracellular amastigotes, Supplementary Materials II, read-out: GI50 (µM) LTB0016, mean of three experiments): 0.278 µM and 0.28 µM
GI50 ([3]; summary bound for reference strain LTB0016 and patient isolates, read-out: GI50): < 1 µM
